According to patent publication US20230256139A1, “IMPLANT SURFACES FOR PAIN CONTROL” (The General Hospital Corporation, priority 2016, published 2023):
Several values for one entry are separate records, joined by “and”; a condition that tells them apart may be missing. Equal values may be shown once. Read-outs that look alike come from different tables or passages of the source.

Tests used:
[1] = for amount of lidocaine eluted: cubes doped 640 min at 100° C.
Source text: The cubes were microtomed perpendicular to a surface plane in the middle of the said surface and the FTIR spectra of the thin sections prepared as described above were obtained as a function of depth from the surface towards the bulk.

[2] = CISM 1 cm cubes, 120° C.
[3] = Elution of lidocaine-blended UHMWPE cubes in 40° C. DI water, FTIR lidocaine index profile; format: physicochemical; conditions: 0.25 wt % and 0.50 wt % lidocaine blends, up to 6 weeks
Experimental: These cubes were then immersed in 40° C. DI water. Groups of n=3 cubes per each wt. % were removed from the DI water and analyzed via FTIR at the following time points: 0 weeks (Control), 1 week, 2 weeks, 4 weeks, and 6 weeks.

[4] = cited from earlier work

2-(Dimethylamino)-N-(2,6-Dimethylphenyl)acetamide [lidocaine]
lidocaine eluted, percent ([1]; 40° C. DI H2O, 1 day): 13%
amount of lidocaine eluted ([1]; 40° C. DI H2O, 1 day): 1.4 ± 0.1 mg
lidocaine eluted, percent ([1]; 40° C. DI H2O, 2 days): 20%
amount of lidocaine eluted ([1]; 40° C. DI H2O, 2 days): 2.2 ± 0.1 mg
lidocaine eluted, percent ([1]; 40° C. DI H2O, 7 days): 34%
amount of lidocaine eluted ([1]; 40° C. DI H2O, 7 days): 3.6 ± 0.1 mg
lidocaine eluted, percent ([1]; 40° C. DI H2O, 14 days): 45%
amount of lidocaine eluted ([1]; 40° C. DI H2O, 14 days): 4.8 ± 0.1 mg
lidocaine eluted, percent ([1]; 40° C. DI H2O, 28 days): 59%
amount of lidocaine eluted ([1]; 40° C. DI H2O, 28 days): 6.3 ± 0.2 mg
lidocaine eluted, percent ([1]; 40° C. DI H2O, 56 days): 70%
amount of lidocaine eluted ([1]; 40° C. DI H2O, 56 days): 7.5 ± 0.1 mg
lidocaine eluted, percent ([1]; 100° C. DI H2O, 0.6 hours): 19%
amount of lidocaine eluted ([1]; 100° C. DI H2O, 0.6 hours): 2.0 ± 0.0 mg
lidocaine eluted, percent ([1]; 100° C. DI H2O, 2.6 hours): 38%
amount of lidocaine eluted ([1]; 100° C. DI H2O, 2.6 hours): 4.1 ± 0.1 mg
lidocaine eluted, percent ([1]; 100° C. DI H2O, 5.3 hours): 49%
amount of lidocaine eluted ([1]; 100° C. DI H2O, 5.3 hours): 5.2 ± 0.0 mg
lidocaine eluted, percent ([1]; 100° C. DI H2O, 12 hours): 70%
amount of lidocaine eluted ([1]; 100° C. DI H2O, 12 hours): 7.3 ± 0.0 mg
lidocaine eluted, percent ([1]; 100° C. DI H2O, 24 hours): 79%
amount of lidocaine eluted ([1]; 100° C. DI H2O, 24 hours): 8.6 ± 0.2 mg
lidocaine eluted, percent ([1]; 100° C. DI H2O, 48 hours): 85%
amount of lidocaine eluted ([1]; 100° C. DI H2O, 48 hours): 9.0 ± 0.1 mg
amount of lidocaine absorbed ([2]; doping time 1 hour): 10.6 ± 0.3 mg
amount of lidocaine absorbed ([2]; doping time 2 hours): 16.8 ± 0.1 mg
amount of lidocaine absorbed ([2]; doping time 6 hours): 30.8 ± 0.2 mg and ~31 mg
amount of lidocaine absorbed ([2]; doping time 12 hours): 40.3 ± 0.2 mg
amount of lidocaine absorbed ([2]; doping time 24 hours): 52.1 ± 0.9 mg
amount of lidocaine absorbed ([2]; doping time […]): 3.0 ± 0.1 mg
surface concentration of lidocaine in UHMWPE with increasing elution time [3]: decrease

CCCCN1CCCCC1C(=O)Nc1c(C)cccc1C.Cl (stereo not shown) [bupivacaine hydrochloride, 1-Butyl-N-(2,6-dimethylphenyl)-2-piperidinecarboxamide hydrochloride]
solubility in cold water [4]: soluble
solubility in diethyl ether [4]: partially soluble
solubility in methanol [4]: easily soluble
